BindingDB's records for doi:10.7270/Q21Z42V4 (Burnham Center For Chemical Genomics, 2010)

Target: Intestinal-type alkaline phosphatase (Mus musculus, UniProt P24822)
Assay: PubChem AID 488875

Chain of Intestinal-type alkaline phosphatase (P24822 whole entry, looked up): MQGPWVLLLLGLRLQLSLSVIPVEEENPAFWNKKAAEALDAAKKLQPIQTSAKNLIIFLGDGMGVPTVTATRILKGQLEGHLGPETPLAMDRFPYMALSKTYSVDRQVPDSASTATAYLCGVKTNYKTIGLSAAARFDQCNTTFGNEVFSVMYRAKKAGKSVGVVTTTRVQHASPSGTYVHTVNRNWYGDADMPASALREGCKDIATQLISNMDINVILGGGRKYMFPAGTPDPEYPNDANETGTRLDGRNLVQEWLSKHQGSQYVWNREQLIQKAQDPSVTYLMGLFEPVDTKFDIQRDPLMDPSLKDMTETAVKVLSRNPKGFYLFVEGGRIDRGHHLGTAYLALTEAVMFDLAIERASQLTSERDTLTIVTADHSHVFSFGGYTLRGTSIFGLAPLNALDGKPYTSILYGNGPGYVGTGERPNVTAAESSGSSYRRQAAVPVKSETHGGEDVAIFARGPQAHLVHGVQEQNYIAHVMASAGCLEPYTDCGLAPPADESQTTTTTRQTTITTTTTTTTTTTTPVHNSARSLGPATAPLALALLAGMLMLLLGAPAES

EC50, > 100 µM:
C=c1[nH]n(-c2nc3ccccc3[nH]2)c(=O)c1=CN(C)C [(4E)-2-(1H-benzimidazol-2-yl)-4-(dimethylaminomethylidene)-5-methyl-pyrazol-3-one], CCc1ccc(CN=Nc2ncnc3nc[nH]c23)cc1 [MLS000419199], Cn1c(C(C#N)C(=O)c2ccc(Br)s2)nc2ccccc21 (centres undefined) [MLS001167394], COc1cccc(C=NNC(=O)c2[nH][nH]c(=O)c2C)c1O [N'-[(E)-(5-methoxy-6-oxidanylidene-cyclohexa-2,4-dien-1-ylidene)methyl]-4-methyl-5-oxidanylidene-1,4-dihydropyrazole-3-carbohydrazide]
